Results published in US8778929B2, “Substituted heteroaryl inhibitors of B-RAF” (Boehringer Ingelheim International GmbH, priority 2008, dated 2014).

The compounds below were run against B-Raf (V600E)-kinase (Homo sapiens, UniProt P15056, V600E) (assay: Kinase test B-Raf (V600E)). Details: compound concentration 2 μM; 100% = no inhibition, 0% = total inhibition; read-out: % CTL (residual activity of the enzyme relative to DMSO control).
Chain of B-Raf (V600E)-kinase (P15056 whole entry V600E): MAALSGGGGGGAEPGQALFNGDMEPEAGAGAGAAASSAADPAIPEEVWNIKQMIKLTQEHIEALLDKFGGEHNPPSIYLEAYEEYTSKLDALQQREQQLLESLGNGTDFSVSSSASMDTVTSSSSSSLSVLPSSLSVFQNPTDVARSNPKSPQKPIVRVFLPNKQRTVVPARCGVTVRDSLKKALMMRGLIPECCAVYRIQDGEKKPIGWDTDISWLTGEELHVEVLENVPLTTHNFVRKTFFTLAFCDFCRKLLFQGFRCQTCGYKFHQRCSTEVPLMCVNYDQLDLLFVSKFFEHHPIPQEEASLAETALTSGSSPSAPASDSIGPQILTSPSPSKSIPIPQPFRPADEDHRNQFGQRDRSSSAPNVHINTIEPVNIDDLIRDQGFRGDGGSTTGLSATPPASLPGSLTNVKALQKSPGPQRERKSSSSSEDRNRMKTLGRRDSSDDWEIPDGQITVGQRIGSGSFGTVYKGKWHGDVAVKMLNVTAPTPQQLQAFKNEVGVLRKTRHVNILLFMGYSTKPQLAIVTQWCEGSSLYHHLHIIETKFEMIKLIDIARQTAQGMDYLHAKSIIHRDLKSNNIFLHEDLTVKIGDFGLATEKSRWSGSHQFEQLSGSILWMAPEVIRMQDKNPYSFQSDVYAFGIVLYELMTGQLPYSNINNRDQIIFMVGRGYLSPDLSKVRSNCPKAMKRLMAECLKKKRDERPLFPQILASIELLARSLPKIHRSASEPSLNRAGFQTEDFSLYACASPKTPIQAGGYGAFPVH
Type: biochemical
In short: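 Kinase preincubated with compound (typically 2 μM to 0.119 nM or 0.017 nM, 5% DMSO) 1 h at RT, then reacted 60 min at RT with 250 μM ATP and biotinylated MEK1. Phospho-MEK (Ser217/221) captured on streptavidin, detected by europium time-resolved fluorescence; IC50 from dose-response curves.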
Work on `Cc1ncc(C(=O)Nc2cc(C(C)(C)C)on2)cc1-n1cc(-c2cncc(N3CCN(C(C)(C)C)CC3)c2)nn1` [Example I-167] yielded a remaining activity at 2 µM of 7.9%.
In the case of `Cc1ncc(C(=O)Nc2cc(C(C)(C)C)on2)cc1-n1cc(-c2cncc(N3CCN(CCCO)CC3)c2)nn1` [Example I-168], the remaining activity at 2 µM is reported as 9.8%.
`COCCCN1CCN(c2cncc(-c3cn(-c4cc(C(=O)Nc5cc(C(C)(C)C)on5)cnc4C)nn3)c2)CC1` [Example I-169] was tested, and the remaining activity at 2 µM was 8.4%.
`CCOCCN1CCN(c2cncc(-c3cn(-c4cc(C(=O)Nc5cc(C(C)(C)C)on5)cnc4C)nn3)c2)CC1` [Example I-170] gave a remaining activity at 2 µM of 7.5%.
For `Cc1ncc(C(=O)Nc2cc(C(C)(C)C)on2)cc1-n1cc(-c2cncc(N3CCN(CC(C)C)CC3)c2)nn1` [Example I-171], the remaining activity at 2 µM was 7.7%.
`CCCCN1CCN(c2cncc(-c3cn(-c4cc(C(=O)Nc5cc(C(C)(C)C)on5)cnc4C)nn3)c2)CC1` [Example I-172] gave a remaining activity at 2 µM of 8%.
In the case of `Cc1ncc(C(=O)Nc2cc(C(C)(C)C)on2)cc1-n1cc(-c2cncc(N3CCN(CC4CCCCC4)CC3)c2)nn1` [Example I-173], the remaining activity at 2 µM is reported as 2.4%.
`C=CCN1CCN(c2cncc(-c3cn(-c4cc(C(=O)Nc5cc(C(C)(C)C)on5)cnc4C)nn3)c2)CC1` [Example I-174] showed a remaining activity at 2 µM of 8.1%.
Compound `Cc1ncc(C(=O)Nc2cc(C(C)(C)C)on2)cc1-n1cc(-c2cncc(N3CCN(CCC#N)CC3)c2)nn1` [Example I-175] has a remaining activity at 2 µM of 8.1%.
In the case of `Cc1ncc(C(=O)Nc2cc(C(C)(C)C)on2)cc1-n1cc(-c2cncc(N3CCN(CC(=O)N(C)C)CC3)c2)nn1` [Example I-176], the remaining activity at 2 µM is reported as 6.7%.
For `Cc1ncc(C(=O)Nc2cc(C(C)(C)C)ncn2)cc1-n1cc(-c2cncc(N3CCN(C)CC3)c2)nn1` [Example I-177], the remaining activity at 2 µM was 1.9%.
For `Cc1ncc(C(=O)Nc2ccnc(C(C)(C)C)c2)cc1-n1cc(-c2cncc(N3CCN(C)CC3)c2)nn1` [Example I-178], the remaining activity at 2 µM was 2.3%.
Compound `Cc1ncc(C(=O)Nc2cc(C(C)(C)C)on2)cc1-n1cc(-c2cncc(N3CCN(CCO)CC3)c2)nn1` [Example I-179] has a remaining activity at 2 µM of 2.6%.
In the case of `Cc1ncc(C(=O)Nc2cc(C(C)(C)C)no2)cc1-n1cc(-c2cncc(N3CCN(C)CC3)c2)nn1` [Example I-180], the remaining activity at 2 µM is reported as 2.9%.
For `Cc1ncc(C(=O)Nc2cc(C(C)(C)C)on2)cc1-n1cc(-c2cncc(N3CCN(CC(F)F)CC3)c2)nn1` [Example I-181], the remaining activity at 2 µM was 2.3%.
`Cc1ncc(C(=O)Nc2cc(C(C)(C)C)on2)cc1-n1cc(-c2cncc(N3CCN(CC(F)(F)F)CC3)c2)nn1` [Example I-182] showed a remaining activity at 2 µM of 2.1%.
In the case of `Cc1ncc(C(=O)Nc2cc(C(C)(C)C)on2)cc1-n1cc(-c2cncc(N3CCNCC3)c2)nn1` [Example I-183], the remaining activity at 2 µM is reported as 1.8%.
Work on `Cc1ncc(C(=O)Nc2cc(C(C)(C)C)on2)cc1-n1cc(-c2cncc(CN3CCOCC3)c2)nn1` [Example I-184] yielded a remaining activity at 2 µM of 2.5%.
`Cc1ncc(C(=O)Nc2cc(C(C)(C)C)on2)cc1-n1cc(-c2cncc(CN3CCCC3)c2)nn1` [Example I-185] was tested, and the remaining activity at 2 µM was 1.7%.
For `Cc1ncc(C(=O)Nc2cc(C(C)(C)C)on2)cc1-n1cc(-c2cncc(CN3CCN(C)CC3)c2)nn1` [Example I-186], the remaining activity at 2 µM was 1.5%.
Compound `Cc1ncc(C(=O)Nc2cc(C(C)(C)C)on2)cc1-n1cc(-c2cncc(CN(C)C)c2)nn1` [Example I-187] has a remaining activity at 2 µM of 4.1%.
Work on `CCN1CCN(Cc2cncc(-c3cn(-c4cc(C(=O)Nc5cc(C(C)(C)C)on5)cnc4C)nn3)c2)CC1` [Example I-188] yielded a remaining activity at 2 µM of 1.5%.
`Cc1ncc(C(=O)Nc2cc(C(C)(C)C)on2)cc1-n1cc(-c2cncc(CN3CCC(F)(F)C3)c2)nn1` [Example I-189] gave a remaining activity at 2 µM of 3.8%.
Work on `Cc1ncc(C(=O)Nc2cc(C(C)(C)C)on2)cc1-n1cc(-c2cncc(CN3CCN(C(C)C)CC3)c2)nn1` [Example I-190] yielded a remaining activity at 2 µM of 4.1%.
`CCN(C)Cc1cncc(-c2cn(-c3cc(C(=O)Nc4cc(C(C)(C)C)on4)cnc3C)nn2)c1` [Example I-191] gave a remaining activity at 2 µM of 3%.
`Cc1ncc(C(=O)Nc2cc(C(C)(C)C)on2)cc1-n1cc(-c2cncc(CN3CC[C@@H](F)C3)c2)nn1` [Example I-192] showed a remaining activity at 2 µM of 1.9%.
Compound `Cc1ncc(C(=O)Nc2cc(C(C)(C)C)on2)cc1-n1cc(-c2cncc(CN3CC[C@H](F)C3)c2)nn1` [Example I-193] has a remaining activity at 2 µM of 3.6%.
Compound `Cc1ncc(C(=O)Nc2cc(C(C)(C)C)on2)cc1-n1cc(-c2cncc(CN)c2)nn1` [Example I-194] has a remaining activity at 2 µM of 2.1%.
With `Cc1ncc(C(=O)Nc2cc(C(C)(C)C)on2)cc1-n1cc(-c2cncc(N3CCC4(CCN(C)CC4)CC3)c2)nn1` [Example I-195] the remaining activity at 2 µM was 0.8%.
`Cc1ncc(C(=O)Nc2cc(C(C)(C)C)on2)cc1-n1cc(-c2cncc(NC3CC(N4CCN(C)CC4)C3)c2)nn1` (centres unmarked) [Example I-196] showed a remaining activity at 2 µM of 1%.
In the case of `Cc1ncc(C(=O)Nc2cc(C(C)(C)C)on2)cc1-n1cc(-c2cncc(N3CCN(CCOC(C)C)CC3)c2)nn1` [Example I-197], the remaining activity at 2 µM is reported as 1%.
For `Cc1ncc(C(=O)Nc2cc(C(C)(C)C)on2)cc1-n1cc(-c2cncc(N3CCN(CCF)CC3)c2)nn1` [Example I-198], the remaining activity at 2 µM was 1.7%.
`Cc1ncc(C(=O)Nc2cc(C(C)(C)C)on2)cc1-n1cc(-c2cncc(NC3CCN(C(C)C)CC3)c2)nn1` [Example I-199] gave a remaining activity at 2 µM of 1.6%.
`Cc1ncc(C(=O)Nc2cc(C(C)(C)C)on2)cc1-n1cc(-c2cncc(N(C)C3CCN(C(C)C)CC3)c2)nn1` [Example I-200] gave a remaining activity at 2 µM of 1%.
For `COCCN1CCCN(c2cncc(-c3cn(-c4cc(C(=O)Nc5cc(C(C)(C)C)on5)cnc4C)nn3)c2)CC1` [Example I-201], the remaining activity at 2 µM was 1.6%.
In the case of `Cc1ncc(C(=O)Nc2cc(C(C)(C)C)on2)cc1-n1cc(-c2cncc(N3CCCN(C)CC3)c2)nn1` [Example I-202], the remaining activity at 2 µM is reported as 1.6%.
`CCC(CC)N1CCN(c2cncc(-c3cn(-c4cc(C(=O)Nc5cc(C(C)(C)C)on5)cnc4C)nn3)c2)CC1` [Example I-204] showed a remaining activity at 2 µM of 1%.
Compound `Cc1ncc(C(=O)Nc2cc(C(C)(C)C)on2)cc1-n1cc(-c2cncc(N3CCC(N4CCN(C)CC4)CC3)c2)nn1` [Example I-205] has a remaining activity at 2 µM of 0.8%.
In the case of `Cc1ncc(C(=O)Nc2cc(C(C)(C)C)on2)cc1-n1cc(-c2cncc(N3CCC(CN4CCOCC4)CC3)c2)nn1` [Example I-206], the remaining activity at 2 µM is reported as 0.9%.
For `Cc1ncc(NC(=O)c2cc(N3CCN(C)CC3)cc(C(F)(F)F)c2)cc1-n1cc(-c2cnn(C)c2C)nn1` [XII-1], the remaining activity at 2 µM was 4.4%.
For `Cc1ncc(NC(=O)c2cc(C(F)(F)F)ccn2)cc1-n1cc(-c2cnn(C)c2C)nn1` [XII-2], the remaining activity at 2 µM was 4.6%.
With `Cc1ncc(NC(=O)c2cc(C(C)(C)C)on2)cc1-n1cc(-c2cnn(C)c2C)nn1` [XII-3] the remaining activity at 2 µM was 4.7%.
In the case of `Cc1ncc(NC(=O)c2cc(N3CCN(C)CC3)c(F)c(C(F)(F)F)c2)cc1-n1cc(-c2cnn(C)c2C)nn1` [XII-5], the remaining activity at 2 µM is reported as 1.8%.
Compound `Cc1ncc(NC(=O)c2cccc(C(C)(C)C#N)c2)cc1-n1cc(-c2cnn(C)c2C)nn1` [XII-6] has a remaining activity at 2 µM of 4.7%.
With `COc1ccc(C(=O)Nc2cnc(C)c(-n3cc(-c4cnn(C)c4C)nn3)c2)cc1C(F)(F)F` [XII-7] the remaining activity at 2 µM was 4.7%.
`Cc1ncc(NC(=O)c2cccc(OC(F)(F)F)c2)cc1-n1cc(-c2cnn(C)c2C)nn1` [XII-8] gave a remaining activity at 2 µM of 6.4%.
`Cc1ccc(C(F)(F)F)cc1C(=O)Nc1cnc(C)c(-n2cc(-c3cnn(C)c3C)nn2)c1` [XII-9] showed a remaining activity at 2 µM of 6.6%.
With `Cc1ncc(NC(=O)c2cccc(C(C)(C)C#N)c2)cc1-n1cc(-c2cncnc2)nn1` [XII-10] the remaining activity at 2 µM was 2.5%.
`COc1cncc(-c2cn(-c3cc(NC(=O)c4cccc(C(C)(C)C#N)c4)cnc3C)nn2)c1` [XII-12] showed a remaining activity at 2 µM of 5.2%.
With `Cc1ncc(NC(=O)c2cccc(C(C)(C)C#N)c2)cc1-n1cc(-c2cncc(C#N)c2)nn1` [XII-13] the remaining activity at 2 µM was 0.9%.
In the case of `Cc1ncc(NC(=O)c2cc(OC(F)(F)F)cc(N3CCN(C)CC3)c2)cc1-n1cc(-c2cnn(C)c2C)nn1` [XII-15], the remaining activity at 2 µM is reported as 0.8%.
`COc1cncc(-c2cn(-c3cc(NC(=O)c4cc(OC(F)(F)F)cc(N5CCN(C)CC5)c4)cnc3C)nn2)c1` [XII-16] gave a remaining activity at 2 µM of 0.7%.
`Cc1ncc(NC(=O)c2cc(OC(F)(F)F)cc(N3CCN(C)CC3)c2)cc1-n1cc(-c2cccnc2)nn1` [XII-17] showed a remaining activity at 2 µM of 0.9%.
In the case of `Cc1cn2c(-c3cn(-c4cc(NC(=O)c5cc(N6CCN(C)CC6)c(C)c(C(F)(F)F)c5)cnc4C)nn3)cnc2cn1` [XII-18], the remaining activity at 2 µM is reported as 2.1%.
`CC(=O)Nc1ncc(-c2cn(-c3cc(NC(=O)c4cc(OC(F)(F)F)cc(N5CCN(C)CC5)c4)cnc3C)nn2)s1` [XII-19] was tested, and the remaining activity at 2 µM was 6.5%.
With `Cc1ncc(NC(=O)c2cc(OC(F)(F)F)cc(N(C)CCN(C)C)c2)cc1-n1cc(-c2cnn(C)c2C)nn1` [XII-20] the remaining activity at 2 µM was 1.6%.
`Cc1ncc(NC(=O)c2cc(NCCN(C)C)cc(OC(F)(F)F)c2)cc1-n1cc(-c2cnn(C)c2C)nn1` [XII-21] showed a remaining activity at 2 µM of 1.5%.
Compound `CCN1CCN(c2cc(OC(F)(F)F)cc(C(=O)Nc3cnc(C)c(-n4cc(-c5cnn(C)c5C)nn4)c3)c2)CC1` [XII-22] has a remaining activity at 2 µM of 3.4%.
`Cc1ncc(-c2cn(-c3cc(NC(=O)c4cc(OC(F)(F)F)cc(N5CCN(C)CC5)c4)cnc3C)nn2)s1` [XII-23] gave a remaining activity at 2 µM of 7.2%.
In the case of `COCCN1CCN(c2cc(OC(F)(F)F)cc(C(=O)Nc3cnc(C)c(-n4cc(-c5cnn(C)c5C)nn4)c3)c2)CC1` [XII-24], the remaining activity at 2 µM is reported as 3.8%.

Same assay, conditions: measurement at 0.29 μM (*); 100% = no inhibition, 0% = total inhibition; read-out: % CTL (residual activity of the enzyme relative to DMSO control)
In the case of `CC(=O)Nc1ncc(-c2cn(-c3cc(NC(=O)c4cccc(C(C)(C)C#N)c4)cnc3C)nn2)s1` [XII-14], the remaining activity at 0.29 µM is reported as 0.9%.

Same assay, conditions: measurement at 1.43 μM (***); 100% = no inhibition, 0% = total inhibition; read-out: % CTL (residual activity of the enzyme relative to DMSO control)
For `Cc1ncc(NC(=O)c2cccc(C(C)(C)C#N)c2)cc1-n1cc(-c2cccnc2)nn1` [XII-11], the remaining activity at 1.43 µM was 1.5%.
